Measurements from patent US20100158808A1, “Altered Activity of Toll-Like Receptors” (priority 2003, published 2010).

Assays:
TLR4 = target: T1, TLR4 (Mus musculus, UniProt Q9JHF9+Q9QUK6); assay: TNF-α secretion by dendritic cells (APC) cocultured with PAEC, ELISA; assay type: cell-based; conditions: cocultures of PAEC and murine APCs, TLR4-positive or -negative
T1 sequence (Q9QUK6 26-835): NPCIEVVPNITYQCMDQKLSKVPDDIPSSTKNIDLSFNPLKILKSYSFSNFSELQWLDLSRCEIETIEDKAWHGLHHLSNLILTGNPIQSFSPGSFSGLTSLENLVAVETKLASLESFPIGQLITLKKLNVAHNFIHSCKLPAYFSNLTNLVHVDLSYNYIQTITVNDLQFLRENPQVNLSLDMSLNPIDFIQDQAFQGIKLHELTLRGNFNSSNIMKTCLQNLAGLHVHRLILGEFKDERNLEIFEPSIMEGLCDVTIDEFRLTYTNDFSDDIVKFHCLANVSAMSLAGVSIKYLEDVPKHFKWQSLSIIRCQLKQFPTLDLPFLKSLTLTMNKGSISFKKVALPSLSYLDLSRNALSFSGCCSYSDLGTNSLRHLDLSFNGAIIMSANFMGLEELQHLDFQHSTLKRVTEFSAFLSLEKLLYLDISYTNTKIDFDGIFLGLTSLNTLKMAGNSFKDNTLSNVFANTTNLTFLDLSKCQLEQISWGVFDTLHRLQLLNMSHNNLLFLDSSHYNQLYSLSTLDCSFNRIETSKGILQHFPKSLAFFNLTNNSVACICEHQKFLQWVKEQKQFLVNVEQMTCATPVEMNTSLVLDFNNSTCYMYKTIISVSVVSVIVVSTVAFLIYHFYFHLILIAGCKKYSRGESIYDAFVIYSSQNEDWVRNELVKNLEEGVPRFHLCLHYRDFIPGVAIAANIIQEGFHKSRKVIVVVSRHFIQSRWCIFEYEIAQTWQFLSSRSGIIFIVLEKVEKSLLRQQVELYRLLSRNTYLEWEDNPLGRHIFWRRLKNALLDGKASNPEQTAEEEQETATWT
T1 sequence (Q9JHF9 19-160): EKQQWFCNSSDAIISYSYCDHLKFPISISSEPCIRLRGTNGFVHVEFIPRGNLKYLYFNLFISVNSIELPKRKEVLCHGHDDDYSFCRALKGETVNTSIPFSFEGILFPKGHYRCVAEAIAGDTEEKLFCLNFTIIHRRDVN
Experimental: Cell Isolation and Culture. Dendritic cells were generated from murine bone marrow cultures as previously described (Kodaira et al. (2000) J. Immunol. 165:1599). At day 6 or 7 of culture, nonadherent cells and loosely adherent proliferating dendritic cell aggregates were harvested for analysis or stimulation. PAEC were cultured to confluence and their identity was confirmed as previously described (Ryan and Maxwell (1986) J. Tissue Cult. Methods 10:3).
Cell Culture Stimulation. Dendritic cells (2×10^6 per ml) cocultured with confluent monolayers of PAEC in 96-well plates were stimulated with 10 μg/ml chondroitin sulfate, 500 ng/ml CpG DNA, 10 ng/ml LPS, 10 μg/ml HS, 50 μg/ml zymosan, or PBS, unless otherwise indicated. To control for purity, agonists were pretreated with END-X B15, or mixed with Limulus anti-LPS factor before stimulation of cells, as indicated. In some experiments, agonists were boiled before use for 60 minutes at 100° C.
Cytokine Quantification. Age-matched female mice were injected in the peritoneum with 0.5 U of elastase, 5 mg of HS, 200 U of heparin, 150 μg of CpG DNA, or PBS with a total volume of 250 μl. One hour and 3 hours after injection, 100-μl blood samples were collected from the tail vein. […] Concentrations of TNF-α were analyzed by enzyme-linked sandwich ELISA (R&D Systems, Minneapolis, Minn.). […]

[1] = Loss of HS from spleen tissue after intrasplenic injection (immunopathology); assay type: in vivo, mice; conditions: within 5 hours of injection
Experimental: Immunopathology. After intraperitoneal (i.p.) injection of ketamine and xylazine, murine spleens were directly visualized through an incision in the lateral abdominal wall and injected with 100 μl of PBS containing 0.1 U of elastase or PBS alone. Five hours later, the spleen was harvested and pieces snap-frozen. Tissue sections were prepared and stained as previously described (Dempsey et al. supra) with the several modifications. In particular, secondary and tertiary antibodies were mouse serum (Jackson ImmunoResearch Laboratories, West Grove, Pa.) preabsorbed and diluted in M.O.M. diluent (Vector Laboratories, Burlingame, Calif.). Fluorescent images were converted to grayscale using SPOT software (Diagnostic Instruments, Sterling Heights, Mich.).
To determine whether elastase liberates HS in vivo, spleen tissues were harvested from mice that had been injected intrasplenically with the enzyme, and the tissues were tested for the presence of HS. […] Thus, pancreatic elastase can induce loss of HS proteoglycan from tissues in vivo.

TLR4/MD2 complex = target: T2, TLR4/MD2 complex (Mus musculus, UniProt Q9JHF9+Q9QUK6); assay: Cell surface expression of TLR4/MD2 in HEK/TLR4(+) cells by flow cytometry; assay type: cell-based, murine
T2 construct: expressed in transfected cells; host or cells: HEK 293 clone HEK/TLR4(+)
T2 sequence (Q9QUK6 26-835): T1 sequence (Q9QUK6 26-835)
T2 sequence (Q9JHF9 19-160): T1 sequence (Q9JHF9 19-160)
Experimental: FIG. 2A is a graph plotting the level of reporter activity in HEK/TLR4(+) cells transfected with NFκB- and control-luciferase reporter plasmids and then stimulated with intact HS or LPS, or with HS or LPS that had been treated with nitrous acid (HNO2) at pH 4.0 or pH 1.5. Controls were treated with PBS vehicle. […] FIG. 2C is a graph showing the effect of PBS, HS, depolymerized HS (nitrous acid, pH 1.5), and recombinant human IL-1α on cell surface expression of TLR4/MD2 in HEK/TLR4(+) cells. Expression of TLR4 on the cell surface was determined by flow cytometry using a monoclonal antibody specific to the TLR4/MD2 complex. Values are the mean of triplicate wells and are representative of three separate experiments.
To determine whether the effect of HS occurred through specific action on TLR4, surface expression of the TLR4/MD2 complex on cells treated with HS was examined. […] Thus, HEK/TLR4(+) cells responded to HS by activating NFκB and mobilizing receptor complexes.

Row | Substance | TNF-α secretion by APC (TLR4) | Loss of HS from blood vessels of spleen [1] | Decrease in surface expression of TLR4/MD2 (TLR4/MD2 complex) [%] | Change in surface expression of TLR4/MD2 (TLR4/MD2 complex)
1 | elastase: pancreatic elastase (Calbiochem; type IV porcine pancreatic elastase, Sigma-Aldrich), protease that cleaves ECM proteins | secreted TNF-α in a TLR4-dependent manner | lost HS from blood vessels at the injection site |  | 
2 | heparan sulfate [HS] | secreted TNF-α in a TLR4-dependent manner |  | 60 | 
3 | lipopolysaccharide [LPS] |  |  |  | a decrease similar to that induced by LPS
